Calls of active or inactive are those of the source.
Tests used:
[1] = cytotoxicity toward NIH3T3 fibroblasts, dose response, counter-screen, cell-based, ATP luminescence, mouse fibroblasts (AID 2010); type: functional;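 also: cells exposed to compound for about 90 hours before reading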
[2] = target: Paired box protein Pax-8 (Homo sapiens, UniProt Q06710); assay: inhibitors of PAX8-driven TPO luciferase reporter, dose response, RMG-I cells, cherry-pick (AID 687027); type: functional, cell-based;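 also: luciferase reporter driven by Pax8 target thyroperoxidase promoter measured by SteadyGlo luminescence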
[3] = target: Histone-lysine N-methyltransferase NSD2 (Homo sapiens, UniProt O96028); type: biochemical
[4] = non-specific cell cytotoxicity, dose response, cytotoxicity control for PAX8 inhibitor project, plate reader, dry powder samples (AID 743021); type: functional, cell-based
[5] = inhibitors of PGC1a acetylation in cells, dose response, cell-based, cherry-picked samples (AID 720514); type: functional;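 also: potency may reflect raised or lowered acetylation signal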
[6] = target: T1, Dual specificity protein phosphatase 6 (Rattus norvegicus, UniProt Q64346); assay: MKP-3 phosphatase inhibitors, primary screen, biochemical, rat enzyme, in vitro (AID 425)
T1 sequence (Q64346 whole entry): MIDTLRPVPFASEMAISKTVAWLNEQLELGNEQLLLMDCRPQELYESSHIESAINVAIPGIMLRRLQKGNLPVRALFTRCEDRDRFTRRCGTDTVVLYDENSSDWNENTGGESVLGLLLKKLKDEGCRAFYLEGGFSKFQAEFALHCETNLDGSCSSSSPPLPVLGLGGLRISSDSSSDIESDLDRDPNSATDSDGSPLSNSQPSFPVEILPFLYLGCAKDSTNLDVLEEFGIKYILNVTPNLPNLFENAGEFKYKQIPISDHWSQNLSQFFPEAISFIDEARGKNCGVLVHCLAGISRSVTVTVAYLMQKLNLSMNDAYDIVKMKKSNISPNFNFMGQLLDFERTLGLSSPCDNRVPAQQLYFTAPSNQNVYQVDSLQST

[7] = Shn3 3'UTR reporter inhibitors, dose response, cell-based, Clone20 osteoblasts, firefly luciferase, cherry-picked (AID 624132); type: functional;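 also: firefly luciferase luminescence from reporter carrying the Shn3 3'UTR in osteoblasts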
[8] = target: T2, Protein RecA (Mycobacterium tuberculosis, UniProt P9WHJ3); assay: Fluorescence Cell-Free Homogeneous Dose Retest to Identify Inhibitors of RecA-Intein Splicing Activity. [Related pubchem assays (depositor defined):AID2097, AID2223, AID489010, AID492950]; type: functional
T2 sequence (P9WHJ3 whole entry): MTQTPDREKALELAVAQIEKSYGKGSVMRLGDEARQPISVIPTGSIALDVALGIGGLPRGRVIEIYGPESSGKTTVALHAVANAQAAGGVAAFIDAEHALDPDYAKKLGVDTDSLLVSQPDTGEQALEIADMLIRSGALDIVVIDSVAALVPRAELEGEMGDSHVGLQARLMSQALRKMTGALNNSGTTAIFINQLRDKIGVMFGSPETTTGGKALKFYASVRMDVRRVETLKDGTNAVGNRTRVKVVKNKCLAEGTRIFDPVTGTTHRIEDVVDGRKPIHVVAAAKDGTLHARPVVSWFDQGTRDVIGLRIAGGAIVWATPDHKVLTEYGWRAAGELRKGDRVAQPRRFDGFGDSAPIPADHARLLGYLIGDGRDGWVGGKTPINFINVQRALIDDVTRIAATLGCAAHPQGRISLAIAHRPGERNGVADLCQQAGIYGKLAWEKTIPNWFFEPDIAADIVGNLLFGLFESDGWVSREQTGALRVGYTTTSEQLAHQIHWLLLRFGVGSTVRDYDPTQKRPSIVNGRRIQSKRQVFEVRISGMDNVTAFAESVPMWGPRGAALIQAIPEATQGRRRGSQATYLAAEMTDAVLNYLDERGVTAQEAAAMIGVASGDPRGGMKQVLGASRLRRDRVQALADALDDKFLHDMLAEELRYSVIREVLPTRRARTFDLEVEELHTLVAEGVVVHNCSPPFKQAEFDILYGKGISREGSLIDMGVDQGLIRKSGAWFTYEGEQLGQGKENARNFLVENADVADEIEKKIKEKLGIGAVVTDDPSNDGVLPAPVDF

[9] = Luminescence-based dose response cell-based high throughput screening assay for cytotoxic compounds using the IEC-6 intestinal epithelial cell line. [Related pubchem assays: 1858 (Summary AID.), 1825 (Counterscreen.), 1907 (Confirmation screen.)]; type: functional
[10] = tested on: Jurkat; assay: antigen receptor-induced NF-kB inhibitors, dose response, Jurkat, luciferase reporter, luminescence, B- and T-cell (AID 489004); type: functional, cell-based; settings: Homo sapiens;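 also: NF-kB luciferase reporter Jurkat cells stimulated with PMA plus ionomycin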
[11] = target: Luciferin 4-monooxygenase (Photinus pyralis, UniProt P08659); assay: Counter Screen for Luciferase-based Assay Positives. [Related pubchem assays: 620, 618, 411 ]
[12] = tested on: HT-1080; assay: cytotoxicity in HT1080 fibrosarcoma cells, cell-based, fluorescence readout (AID 620); type: functional; settings: Homo sapiens
[13] = target: Tyrosine-protein kinase Fyn (Homo sapiens, UniProt P06241); type: functional
[14] = target: Casein kinase II subunit alpha (Homo sapiens, UniProt P68400); type: functional
[15] = target: Cell division cycle 7-related protein kinase (Homo sapiens, UniProt O00311); type: functional;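 also: value obtained from a kinome-wide kinase panel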
[16] = target: Tyrosine-protein kinase SYK (Homo sapiens, UniProt P43405); type: functional
[17] = target: Tyrosine-protein kinase Lyn (Homo sapiens, UniProt P07948); type: functional;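 also: lyn as one member of a kinase panel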
[18] = target: Tyrosine-protein kinase receptor UFO (Homo sapiens, UniProt P30530); type: functional
[19] = target: cAMP-dependent protein kinase catalytic subunit PRKX (Homo sapiens, UniProt P51817); type: functional
[20] = target: Dual specificity mitogen-activated protein kinase kinase 2 (Homo sapiens, UniProt P36507); assay: Navigating the Kinome. Panel member name: MAP2K2; type: functional
[21] = target: Ephrin type-A receptor 2 (Homo sapiens, UniProt P29317); type: functional;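 also: EPHA2 tested as one member of a kinome-wide kinase panel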
[22] = target: Serine/threonine-protein kinase 3 (Homo sapiens, UniProt Q13188); type: functional;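 also: measured as one member of a kinome-wide kinase panel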
[23] = target: BDNF/NT-3 growth factors receptor (Homo sapiens, UniProt Q16620); type: functional;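 also: NTRK2 measured as one member of a broad kinome-wide kinase profiling panel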
[24] = target: Fibroblast growth factor receptor 3 (Homo sapiens, UniProt P22607); type: functional
[25] = target: Proto-oncogene tyrosine-protein kinase ROS (Homo sapiens, UniProt P08922); type: functional;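 also: ROS1 tested as one member of a kinome-wide kinase panel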
[26] = target: Vascular endothelial growth factor receptor 3 (Homo sapiens, UniProt P35916); type: functional;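 also: value from a kinome-wide profiling panel, with FLT4 as the panel member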
Sequence of Vascular endothelial growth factor receptor 3 (P35916 whole entry): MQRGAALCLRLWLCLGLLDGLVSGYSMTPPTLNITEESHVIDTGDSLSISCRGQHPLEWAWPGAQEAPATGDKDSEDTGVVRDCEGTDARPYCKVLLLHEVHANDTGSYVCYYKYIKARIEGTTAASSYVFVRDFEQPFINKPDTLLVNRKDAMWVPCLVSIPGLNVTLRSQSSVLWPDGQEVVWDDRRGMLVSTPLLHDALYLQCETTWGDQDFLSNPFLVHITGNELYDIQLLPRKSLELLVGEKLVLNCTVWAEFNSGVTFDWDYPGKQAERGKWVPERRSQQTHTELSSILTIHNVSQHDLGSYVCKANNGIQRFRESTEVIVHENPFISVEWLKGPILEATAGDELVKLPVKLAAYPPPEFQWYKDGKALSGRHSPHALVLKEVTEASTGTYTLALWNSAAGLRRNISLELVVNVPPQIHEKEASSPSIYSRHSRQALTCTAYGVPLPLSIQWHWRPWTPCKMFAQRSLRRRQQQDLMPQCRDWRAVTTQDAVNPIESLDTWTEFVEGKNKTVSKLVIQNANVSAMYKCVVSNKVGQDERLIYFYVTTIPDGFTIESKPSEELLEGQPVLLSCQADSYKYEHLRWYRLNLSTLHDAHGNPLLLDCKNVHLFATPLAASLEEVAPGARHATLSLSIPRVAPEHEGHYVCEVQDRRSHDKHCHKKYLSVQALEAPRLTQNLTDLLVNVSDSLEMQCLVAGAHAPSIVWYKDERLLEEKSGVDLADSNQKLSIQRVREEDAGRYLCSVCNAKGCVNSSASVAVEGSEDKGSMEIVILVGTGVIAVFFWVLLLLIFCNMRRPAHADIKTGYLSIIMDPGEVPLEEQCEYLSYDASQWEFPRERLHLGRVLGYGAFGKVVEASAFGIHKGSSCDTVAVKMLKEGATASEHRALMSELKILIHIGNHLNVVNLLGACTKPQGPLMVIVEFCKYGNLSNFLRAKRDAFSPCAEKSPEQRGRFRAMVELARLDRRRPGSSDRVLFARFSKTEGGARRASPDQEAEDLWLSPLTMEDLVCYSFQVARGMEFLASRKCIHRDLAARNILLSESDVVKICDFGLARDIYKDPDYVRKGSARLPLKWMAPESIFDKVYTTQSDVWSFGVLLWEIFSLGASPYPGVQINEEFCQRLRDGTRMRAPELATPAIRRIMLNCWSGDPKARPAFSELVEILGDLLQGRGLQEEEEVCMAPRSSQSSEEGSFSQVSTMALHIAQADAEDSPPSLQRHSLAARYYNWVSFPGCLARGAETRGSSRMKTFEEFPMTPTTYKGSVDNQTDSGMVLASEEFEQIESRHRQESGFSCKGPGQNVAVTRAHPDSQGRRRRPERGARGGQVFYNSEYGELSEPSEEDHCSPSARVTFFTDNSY

Sequence of cAMP-dependent protein kinase catalytic subunit PRKX (P51817 whole entry): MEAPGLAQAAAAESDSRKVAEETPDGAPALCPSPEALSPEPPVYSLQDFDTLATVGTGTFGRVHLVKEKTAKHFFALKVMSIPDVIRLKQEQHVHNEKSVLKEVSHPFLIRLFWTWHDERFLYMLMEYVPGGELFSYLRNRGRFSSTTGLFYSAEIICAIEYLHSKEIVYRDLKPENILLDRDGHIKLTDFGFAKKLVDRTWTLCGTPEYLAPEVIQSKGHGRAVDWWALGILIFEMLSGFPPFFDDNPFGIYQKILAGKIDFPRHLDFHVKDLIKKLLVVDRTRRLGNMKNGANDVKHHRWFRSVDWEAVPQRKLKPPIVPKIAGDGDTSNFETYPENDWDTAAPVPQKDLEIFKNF
Sequence of Tyrosine-protein kinase receptor UFO (P30530 whole entry): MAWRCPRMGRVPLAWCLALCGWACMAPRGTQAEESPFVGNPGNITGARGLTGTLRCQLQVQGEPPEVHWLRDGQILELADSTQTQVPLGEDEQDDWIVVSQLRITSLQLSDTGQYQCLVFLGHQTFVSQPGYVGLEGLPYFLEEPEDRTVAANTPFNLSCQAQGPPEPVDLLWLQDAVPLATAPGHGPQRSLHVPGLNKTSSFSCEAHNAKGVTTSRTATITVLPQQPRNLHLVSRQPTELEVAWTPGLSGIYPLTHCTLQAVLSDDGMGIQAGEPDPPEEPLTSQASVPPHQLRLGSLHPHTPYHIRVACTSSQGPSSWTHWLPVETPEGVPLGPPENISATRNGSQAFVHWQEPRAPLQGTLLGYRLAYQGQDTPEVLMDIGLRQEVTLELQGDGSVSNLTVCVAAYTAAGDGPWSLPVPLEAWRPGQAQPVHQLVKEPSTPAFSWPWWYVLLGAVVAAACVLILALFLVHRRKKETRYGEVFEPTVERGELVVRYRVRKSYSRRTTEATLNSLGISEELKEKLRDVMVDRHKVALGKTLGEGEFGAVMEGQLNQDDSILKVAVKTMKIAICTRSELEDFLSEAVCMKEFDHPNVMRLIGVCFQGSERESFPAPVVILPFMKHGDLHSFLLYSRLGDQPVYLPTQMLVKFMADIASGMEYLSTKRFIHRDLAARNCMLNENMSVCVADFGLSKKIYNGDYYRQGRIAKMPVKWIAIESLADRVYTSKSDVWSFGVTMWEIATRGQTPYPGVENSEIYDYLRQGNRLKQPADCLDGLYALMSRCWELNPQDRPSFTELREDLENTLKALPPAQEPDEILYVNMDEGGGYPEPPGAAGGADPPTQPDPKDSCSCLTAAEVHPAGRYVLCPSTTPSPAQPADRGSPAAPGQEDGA
Sequence of Tyrosine-protein kinase Fyn (P06241 whole entry): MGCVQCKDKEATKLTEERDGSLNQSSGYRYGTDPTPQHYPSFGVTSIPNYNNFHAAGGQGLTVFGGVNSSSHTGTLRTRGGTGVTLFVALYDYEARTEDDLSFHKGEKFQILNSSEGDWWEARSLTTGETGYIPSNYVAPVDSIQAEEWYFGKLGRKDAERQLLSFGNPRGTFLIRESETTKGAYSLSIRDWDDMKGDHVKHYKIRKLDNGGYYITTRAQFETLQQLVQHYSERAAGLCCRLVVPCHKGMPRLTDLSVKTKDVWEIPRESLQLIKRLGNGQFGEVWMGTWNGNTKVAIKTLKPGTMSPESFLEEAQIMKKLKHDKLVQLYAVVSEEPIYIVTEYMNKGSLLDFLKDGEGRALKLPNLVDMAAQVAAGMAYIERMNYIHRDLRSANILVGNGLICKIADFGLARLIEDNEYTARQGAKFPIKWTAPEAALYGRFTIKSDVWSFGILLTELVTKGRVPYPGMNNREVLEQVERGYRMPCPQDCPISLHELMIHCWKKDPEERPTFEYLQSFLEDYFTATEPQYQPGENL
Sequence of BDNF/NT-3 growth factors receptor (Q16620 whole entry): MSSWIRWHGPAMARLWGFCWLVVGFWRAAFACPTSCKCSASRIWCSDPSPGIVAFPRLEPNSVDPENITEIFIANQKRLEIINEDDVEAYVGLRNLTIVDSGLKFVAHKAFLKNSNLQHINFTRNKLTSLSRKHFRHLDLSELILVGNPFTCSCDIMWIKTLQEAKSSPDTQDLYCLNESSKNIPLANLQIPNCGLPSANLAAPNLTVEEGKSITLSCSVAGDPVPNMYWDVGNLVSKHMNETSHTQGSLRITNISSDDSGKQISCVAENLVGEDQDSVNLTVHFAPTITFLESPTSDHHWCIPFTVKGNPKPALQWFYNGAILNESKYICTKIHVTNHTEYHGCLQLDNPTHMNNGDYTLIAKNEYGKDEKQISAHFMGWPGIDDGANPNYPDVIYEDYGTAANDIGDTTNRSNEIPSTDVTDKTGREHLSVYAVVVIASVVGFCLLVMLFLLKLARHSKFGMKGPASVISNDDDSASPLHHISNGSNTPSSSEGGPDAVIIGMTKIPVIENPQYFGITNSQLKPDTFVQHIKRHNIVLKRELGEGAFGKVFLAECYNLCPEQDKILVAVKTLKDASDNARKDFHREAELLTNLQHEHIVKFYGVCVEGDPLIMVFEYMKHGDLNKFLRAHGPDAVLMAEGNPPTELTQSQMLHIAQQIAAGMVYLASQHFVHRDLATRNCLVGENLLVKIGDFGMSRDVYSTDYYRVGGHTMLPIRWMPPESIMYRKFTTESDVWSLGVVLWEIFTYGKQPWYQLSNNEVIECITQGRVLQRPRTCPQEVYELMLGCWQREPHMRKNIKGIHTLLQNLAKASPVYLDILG
Sequence of Cell division cycle 7-related protein kinase (O00311 whole entry): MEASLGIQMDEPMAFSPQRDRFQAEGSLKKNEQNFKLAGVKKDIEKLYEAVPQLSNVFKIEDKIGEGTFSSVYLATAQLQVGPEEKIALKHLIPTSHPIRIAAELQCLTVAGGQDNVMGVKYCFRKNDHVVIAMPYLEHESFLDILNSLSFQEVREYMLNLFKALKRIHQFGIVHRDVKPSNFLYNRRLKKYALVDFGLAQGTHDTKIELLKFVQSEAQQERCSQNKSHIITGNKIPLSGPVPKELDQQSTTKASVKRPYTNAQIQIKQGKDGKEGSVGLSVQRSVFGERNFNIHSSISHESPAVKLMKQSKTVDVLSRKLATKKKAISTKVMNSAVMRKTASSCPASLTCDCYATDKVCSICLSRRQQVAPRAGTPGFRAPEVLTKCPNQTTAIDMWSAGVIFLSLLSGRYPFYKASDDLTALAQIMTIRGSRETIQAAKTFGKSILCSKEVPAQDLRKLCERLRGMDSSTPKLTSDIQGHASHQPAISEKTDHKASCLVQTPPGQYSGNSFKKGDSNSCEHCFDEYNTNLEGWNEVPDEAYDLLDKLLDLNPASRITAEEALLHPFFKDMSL
Sequence of Paired box protein Pax-8 (Q06710 whole entry): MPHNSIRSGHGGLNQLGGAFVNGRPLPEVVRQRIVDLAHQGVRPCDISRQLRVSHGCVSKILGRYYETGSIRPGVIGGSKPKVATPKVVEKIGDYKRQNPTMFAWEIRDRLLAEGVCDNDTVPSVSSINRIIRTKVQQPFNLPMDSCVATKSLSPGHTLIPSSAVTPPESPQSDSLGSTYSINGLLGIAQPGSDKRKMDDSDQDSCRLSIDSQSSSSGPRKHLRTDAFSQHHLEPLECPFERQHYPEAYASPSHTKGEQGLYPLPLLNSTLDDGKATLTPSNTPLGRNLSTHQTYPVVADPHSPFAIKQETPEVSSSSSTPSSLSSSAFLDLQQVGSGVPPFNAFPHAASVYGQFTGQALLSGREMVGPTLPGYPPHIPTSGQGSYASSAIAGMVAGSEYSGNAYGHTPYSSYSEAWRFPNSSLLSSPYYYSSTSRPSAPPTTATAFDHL

CCn1nc(/C=C/c2ccccc2)nc2c(=O)n(C)c(=O)nc1-2
< 1230 nM (not active): IC50 [6]
active: EC50 [1] 1020 nM | AC50 [2] 4210 nM | AC50 [3] 87.9 nM | AC50 [4] 12700 nM | AC50 [5] 2870 nM | AC50 [7] 2570 nM | EC50 [8] 36.8 nM | IC50 [9] 335 nM

CC(C)c1ccc(-c2nnn(CCC(=O)O)n2)cc1
active: IC50 [10] < 160 nM | EC50 [11] 4770 nM
> 50000 nM (not active): EC50 [12]

COc1cc2c(cc1Nc1nc(Nc3cccc(F)c3C(N)=O)c3cc[nH]c3n1)N(C(=O)CN(C)C)CC2
inactive: Ki [13] > 6310 nM | Ki [16] > 1580 nM | Ki [17] > 1580 nM | Ki [19] > 3160 nM | Ki [20] > 3980 nM | Ki [21] > 3160 nM | Ki [22] > 3160 nM | Ki [23] > 3980 nM | Ki [24] > 2000 nM | Ki [26] > 6310 nM
active: Ki [14] 631 nM | Ki [15] 631 nM | Ki [18] 126 nM | Ki [25] 2.51 nM
